Measurements taken from BindingDB's records for doi:10.1021/ml100283h (2011).

Columns and labels:
[1] = target: T1, Cytochrome P450 11B2, mitochondrial (Homo sapiens, UniProt P19099); experiment: Inhibition of human CYP11B2 expressed in hamster V79 MZ cells using [3H] 11 deoxycorticosterone as substrate by HPLC radioflow detector
T1 sequence (P19099 whole entry): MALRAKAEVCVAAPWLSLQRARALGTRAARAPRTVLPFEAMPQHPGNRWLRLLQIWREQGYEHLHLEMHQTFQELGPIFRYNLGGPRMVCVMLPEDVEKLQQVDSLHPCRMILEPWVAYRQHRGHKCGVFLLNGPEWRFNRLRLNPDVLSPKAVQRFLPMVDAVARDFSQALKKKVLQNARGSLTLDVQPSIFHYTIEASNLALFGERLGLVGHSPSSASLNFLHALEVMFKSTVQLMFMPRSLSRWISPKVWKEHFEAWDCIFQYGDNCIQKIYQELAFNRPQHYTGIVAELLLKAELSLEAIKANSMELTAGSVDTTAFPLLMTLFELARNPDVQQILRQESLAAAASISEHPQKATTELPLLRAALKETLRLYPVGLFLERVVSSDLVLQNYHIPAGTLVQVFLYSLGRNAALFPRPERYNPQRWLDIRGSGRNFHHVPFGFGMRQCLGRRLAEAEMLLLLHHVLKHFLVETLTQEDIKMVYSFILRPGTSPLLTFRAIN

[2] = target: T2, Cytochrome P450 11B1, mitochondrial (Homo sapiens, UniProt P15538); experiment: Inhibition of human CYP11B1 expressed in hamster V79 MZ cells using [3H] 11 deoxycorticosterone as substrate by HPLC radioflow detector
T2 sequence (P15538 whole entry): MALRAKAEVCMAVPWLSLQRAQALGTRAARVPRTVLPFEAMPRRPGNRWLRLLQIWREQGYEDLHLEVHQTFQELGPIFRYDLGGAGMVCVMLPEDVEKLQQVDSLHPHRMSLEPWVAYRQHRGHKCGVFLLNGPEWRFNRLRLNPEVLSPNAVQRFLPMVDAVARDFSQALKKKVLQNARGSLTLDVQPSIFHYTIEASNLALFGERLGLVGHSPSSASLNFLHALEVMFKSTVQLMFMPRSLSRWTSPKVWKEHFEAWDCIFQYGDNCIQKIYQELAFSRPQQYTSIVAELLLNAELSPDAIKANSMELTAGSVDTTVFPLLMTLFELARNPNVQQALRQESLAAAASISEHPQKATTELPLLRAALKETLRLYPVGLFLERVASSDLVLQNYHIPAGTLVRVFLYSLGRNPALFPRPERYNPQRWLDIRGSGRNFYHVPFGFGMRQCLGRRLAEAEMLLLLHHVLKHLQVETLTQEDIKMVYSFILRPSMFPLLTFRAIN

- IC50 [1]: 2.77 µM
- IC50 [2]: 0.152 µM
Compound: c1ccc(-c2ccc(Cn3ccnc3)cn2)cc1 [5-((1H-imidazol-1-yl)methyl)-2-phenylpyridine]
